Data reported in patent publication US20070213312A1, “Hif-1 Inhibitors and Methods of Use Thereof” (priority 2003, published 2007).
Residues, ends and D or L forms follow the SMILES beside them. *: point of attachment. Cbz = O=C(OCc1ccccc1)*

Columns and labels:
[1] = system: HIF-1α; experiment: HIF-1α detection in cells exposed to DBM plus metals (summary statements); type: cell-based, human; settings: cells exposed to DBM plus the metal; HEK 293 and HT144 for Zn^2+
Excerpt: In subsequent studies, similar data has been found for HEK 293 human embryonic kidney cells and HT144 melanoma cells treated with either DBM or Zn^2+. […] This finding appears to be unique to the combination of DBM with Zn^2+ since it was not observed in cells exposed to DBM plus other metals such as Fe^3+, Co^2+, Cd^2+, and Ni^2+. Furthermore, this unexpected reversal of the independent effects of DBM and Zn^2+ was not blocked by hypoxia. These observations are counterintuitive since inhibitors of HIF P4H should impede degradation of HIF-1α. Also, these two HIF P4H inhibitors appear to work in concert under inhibitory conditions to down-regulate HIF-1α with little effect on HIF-1α mRNA levels.
Basal levels of HIF-1α are low in cells exposed to ambient oxygen, yet under these conditions both DBM and Zn^2+ stabilize HIF-1α and cause the accumulation of HIF-1α protein (FIG. 15). It has been shown that this stabilizing effect on HIF-1α was itself reversed by the concomitant addition of Zn^2+ to DBM under ambient oxygen. […] This destabilizing effect appears unique to the combination of DBM plus Zn^2+ since it was not observed with other metals known to form chelates with DBM such as Fe^3+, Co^2+, Cd^2+ and Ni^2+. […] Though assessment of downstream effectors of HIF-1α (e.g., VEGF) was not included in the preliminary data, the effects of DBM and cobalt on VEGF in LNCaP human prostate cancer cells have been previously reported.

[2] = system: HIF-1α; settings: LNCaP cells, ambient O2; cited from earlier work
[3] = system: VEGF; settings: LNCaP cells, ambient O2; cited from earlier work
[4] = system: HIF-1α; experiment: Western blot analysis of HIF-1α in HEK 293 cells under ambient oxygen (normoxia); type: cell-based, human; settings: HEK 293, ambient oxygen; for HIF-1α levels by Western blot: 1 hr, DBM 100 μM, Zn^2+ 25 μM to 100 μM, alone or combined; for HIF-1α by Western blot: agent(s) without further addition; for HIF-1α by Western blot in the presence of proteosome inhibitor MG-132: MG-132 added to the agent(s)
Procedure: The first unexpected finding was that the combination of DBM plus Zn^2+ reversed the induced stabilization of HIF-1α observed when the cells were exposed to either DBM or Zn^2+ alone under normoxic conditions (FIG. 15). […] HIF-1α was not detected at baseline by Western blot (FIG. 15, lane 1).
Proteosomal degradation of HIF-1α was assessed in HEK 293 embryonic kidney cells treated with DBM alone, Zn^2+ alone or the combination under ambient oxygen in the presence or absence of the proteosome inhibitor MG-132 (FIG. 18). […] (FIG. 18, lane 5). […] The HIF-1α isoforms are more clearly resolved on the gel from FIG. 18 than FIG. 15. This may be due to differences in the time the gels were run.

[5] = system: HIF-1α; experiment: Western blot analysis of HIF-1α in HT144 melanoma cells under hypoxia (1% O2); type: cell-based, human; settings: for HIF-1α levels by Western blot: HT 144 melanoma cells, 2 hours under 1% O2
Procedure: (§1) HT 144 melanoma cells (FIG. 16 (A)) and HEK 293 embryonic kidney cells (FIG. 16 (B)) were incubated for 2 hours under 1% O2. HIF-1α was detected by Western blot at baseline ([…] lane 1).

[6] = system: HIF-1α mRNA; experiment: Semiquantitative PCR (RT-PCR) of HIF-1α mRNA in HEK 293 cells under normoxia; type: cell-based, human; settings: HEK 293, normoxia, 2 hours, serum free media
Procedure: The effects of DBM alone, Zn^2+ alone and DBM plus Zn^2+ on HIF-1α mRNA levels were assessed by semiquantitative PCR in extracts of HEK 293 kidney cells under normoxia for 2 hours in serum free media (FIG. 17). […] HIF-1αZ mRNA levels were not found to be increased (data not shown).

[7] = system: HIF-1α; experiment: Western blot analysis of HIF-1α in HEK 293 cells under hypoxia (1% O2); type: cell-based, human; settings: 2 hours under 1% O2, metal added together with DBM
Procedure: as §1

[8] = system: HIF-1α; experiment: Western blot analysis of HIF-1α in VHL (−/−) RCC-4 renal cell carcinoma cells under normoxia; type: cell-based, human; settings: RCC-4 VHL (−/−), normoxic conditions; MG-132 for 1 hour
Excerpt: As expected, HIF-1α was detected by Western blot under normoxic conditions (FIG. 19, lane 1). […] These experiments have not been performed as yet in RCC4 cells with DBM alone or in RCC4 cells transfected with pVHL.

[9] = system: HIF-1αZ; settings: cited from earlier work
[10] = system: kidney cancer; settings: patients with metastatic disease, high doses; cited from earlier work

With [Cd+2] [Cd^2+] the “Loss of HIF-1α (no HIF-1α detected) when metal is combined with DBM” value (shortened to “Loss of HIF-1α (no HIF-1α detected)”) [1] was “not observed”.
In the case of [Co+2] [Co^2+, reference compound], the “Loss of HIF-1α (no HIF-1α detected)” value [1] is listed as “not observed”, the HIF-1α levels [2] is listed as “rapidly increase” and the VEGF levels [3] is listed as “rapidly increase”.
For O=C(CC(=O)c1ccccc1)c1ccccc1 [DBM, 1,3-diphenylpropane-1,3-dione], the “HIF-1α levels by Western blot” value [4] was “significant increase in HIF-1α levels”, the “HIF-1α by Western blot” value ([4]; 2 hours) was “readily detected” and the “HIF-1α by Western blot in the presence of proteosome inhibitor MG-132” value [4] was “did not stabilize these other forms of HIF-1α”. For the same compound, the “HIF-1α levels by Western blot” value [5] was “significantly increased the levels of HIF-1α”, the “HIF-1α mRNA levels by semiquantitative PCR” value [6] was “not significantly different from baseline” and the HIF-1α levels [2] was “rapidly increase”. For the same compound, the VEGF levels [3] was “rapidly increase”.
With [Fe+3] [Fe^3+] the “Effect of metal added to DBM on HIF-1α levels by Western blot” value ([5]; HT 144 cells, 2 hours under 1% O2, metal added together with DBM) was “did not significantly alter the effect of DBM on HIF-1α levels”, the “Effect of metal added to DBM on HIF-1α levels by Western blot” value [7] was “decreased slower migrating isoforms of HIF-1α” and the “Loss of HIF-1α (no HIF-1α detected)” value [1] was “not observed”.
With CC(C)C[C@@H](C=O)NC(=O)[C@H](CC(C)C)NC(=O)[C@H](CC(C)C)NC(=O)OCc1ccccc1 [MG-132, reference compound] (Cbz-Leu-Leu-Leu-aldehyde) the “HIF-1α by Western blot” value ([4]; 2 hours) was “accumulation of a broad range of proteins that possibly represent ubiquitinated forms of HIF-1α” and the “HIF-1α by Western blot” value [8] was “Stabilization of HIF-1α was enhanced”.
In the case of [Ni+2] [Ni^2+], the “Loss of HIF-1α (no HIF-1α detected)” value [1] is reported as “not observed”.
In the case of [Zn+2] [Zn^2+], the “HIF-1α levels by Western blot” value [4] is reported as “increased HIF-1α levels in a dose dependent manner”, the “Molecular weight of stabilized HIF-1α isoforms” value ([4]; 2 hours) is reported as “higher molecular weight than those induced by DBM” and the “HIF-1α by Western blot” value ([4]; 2 hours) is reported as “readily detected”. For the same compound, the “HIF-1α by Western blot in the presence of proteosome inhibitor MG-132” value [4] was “did not stabilize these other forms of HIF-1α”, the “HIF-1α levels by Western blot” value [5] was “decreased the more rapidly migrating isoforms of HIF-1α” and the “HIF-1α mRNA levels by semiquantitative PCR” value [6] was “not significantly different from baseline”. For the same compound, the “Zn^2+ concentration at which HIF-1αZ exhibits loss of exon 12” value [9] was “above 100 μM”.
For “bevacizumab: humanized monoclonal antibody specific for VEGF”, the Clinical responses [10] is listed as “Clinical responses have been observed”.
